# Experiments:
# [1] = tested on: Bax, Bcl-2, caspase-3, and caspase-9 in HepG2; experiment: RT-PCR relative expression of apoptosis markers; assay type: cell-based, human; details: IC50, 8-hour incubation, vs control
# Source text: We determined the effect of IC50 concentration of newly synthesized thienopyrimidine derivatives (3a-e and 3g and 3b and 3g) on the relative expression levels of some markers of apoptosis in HepG2 and MCF-7 cell lines, respectively. These included the antiapoptotic marker Bcl-2 as well as the apoptotic markers Bax, caspase-3, and caspase-9 [33]. BIORAD iScript™ One-Step RT-PCR kit with SYBR® Green was used to assess the relative levels of expression of apoptosis markers. The measurement was carried out according to the technique of reverse transcription polymerase chain reaction (RT-PCR) using the Rotor-Gene RT-PCR system, and the method of the used kit was done based on the manufacturer's instructions. The procedure of this assay included the following:
# Based on the manufacturer's instructions, the Qiagen RNeasy Extraction Kit (Qiagen Ltd., UK) was used to isolate mRNA from approximately 1 × 10^7 cells according to the cell line.
# Mix all the following reagents to get the total volume (50 μl): 2X SYBR® Green RTPCR reaction mixture (25 μl), forward primer […] (1.5 μl), reverse primer […] (1.5 μl), nuclease-free water (11 μl), RNA template (1 pg-100 ng total RNA) (10 μl), and iScript reverse transcriptase (1 μl) for One-Step RT-PCR.
# The thermal cycler (Rotor-Gene) program used was as follows: one cycle for reverse transcription at 50°C for 10 minutes and one cycle for RT inactivation/Hot-start activation at 95°C for 5 minutes and then 45 cycles for qPCR (10 s at 95°C, 30 seconds for annealing at 55°C, and 30 seconds for extension at 72°C), and this is followed by the final extension (one cycle) at 72°C for 10 minutes.
# HepG2 cell line = experiment: Cell cycle analysis (PI, flow cytometry); assay type: cell-based, human
# Procedure: Cell cycle analysis was performed to decide if the newly synthesized thienopyrimidine derivatives arrested the cell cycle and at what phase of the cell cycle, the HepG2 and MCF-7 cell lines were arrested. The experiments were performed as previously described by Tolba et al.. HepG2 and MCF-7 cell lines were seeded and incubated with the tested compounds in 6-well plates. After incubation overnight, the cells were washed twice with ice-cold phosphate-buffered saline (PBS), detached by EDTA-trypsinization from the plates, harvested by centrifugation, fixed in ice-cold 70% (v/v) ethanol, and washed with phosphate-buffered saline (PBS, pH 7.2 ± 0.2). The cells were resuspended with 0.1 mg/ml RNase, stained with […] propidium iodide (PI), and analyzed by flow cytometry using a FACSCalibur flow cytometer (BD Biosciences, San Jose, CA). CellQuest software (Becton Dickinson) was used to determine the cell cycle distributions after incubation with 5-FU or tested compounds. Exposure of HepG2 and MCF-7 cell lines to these compounds could interfere with the normal cell cycle distribution.
# [2] = tested on: human breast cancer cell line (MCF-7); experiment: MTT assay, cytotoxicity; assay type: cell-based; details: MCF-7, 24 hours
# Procedure: (§1) Cancer cell lines were manipulated according to the method described by Sigounas et al.. In this method, the cell lines were grown as adherent monolayers in T75 flasks with Dulbecco's modified Eagle's medium (DMEM) supplemented with 10% Fetal Bovine Serum (FBS), 2 mM L-glutamine, and 1% streptomycin/penicillin. The cells were left to grow in a CO2 incubator at 37°C, 5% CO2, and 95% humidity until their confluence.
# (§2) The 3-[4,5-dimethylthiazol-2-yl]-2,5-diphenyltetrazolium bromide (MTT) colorimetric assay was used to examine the sensitivity of cells to tested compounds (as anticancer drugs), as previously described. This assay depends on the production of a purple formazan derivative from the yellow tetrazolium bromide (MTT) by mitochondrial succinate dehydrogenase in viable cells. The percentage of cell survival was calculated as follows: (1) Percentage of survival=O.D.treated cells/O.D.control cells×100.
# (§3) For preliminary screening of the cytotoxicity of synthesized compounds 3a-g, cells exposed to DMSO were used as a control. Plotting the relationship between the survival score and the compound concentration and calculating the IC50 (the concentration required to inhibit cell viability by 50%) were performed for each test compound according to Li et al. in comparison with the reference standard anticancer agent, 5-FU.
# (§4) The 3-[4,5-dimethylthiazol-2-yl]-2,5-diphenyltetrazolium bromide (MTT) colorimetric assay was used to examine the sensitivity of cells to tested compounds (as anticancer drugs), as previously described by Hussein et al. (2017). This assay depend on the production of a purple formazan derivative from the yellow tetrazolium bromide (MTT) by mitochondrial succinate dehydrogenase in viable cells. Briefly, after harvesting the cells with 0.25% trypsin, the cell lines were suspended in DMEM. Cells were seeded in 96-well microtiter plates at a concentration of 5×10^4 cell/well in a fresh medium and left to attach to the plates for 24 h before treatment with the tested compounds 3a-g. Test compounds were dissolved in dimethyl sulfoxide (DMSO). After 24 hours, cells were incubated with the appropriate concentration ranges of compounds, the wells were diluted to […] with fresh medium and incubation was continued for 24 hours. Three wells were used for each concentration. After 24 hours of treatment, 20 μl of MTT solution (5mg/ml) was added and subsequently the plates were further incubated for 4 hours to allow the viable cells to biotransform the yellow-colored MTT into purple formazan crystals. The optical density (O.D.) of each well was measured spectrophotometrically at […] with an enzyme-linked immunosorbent assay (ELISA) microplate reader (BioTek, EL-800, USA). The percentage of cell survival was calculated as follows: […]
# [3] = tested on: human liver cancer cell line (HepG2); experiment: MTT assay, cytotoxicity; assay type: cell-based; details: HepG2, 24 hours
# Procedure: as §1, §2, §3, §4
# MCF-7 cell line = experiment: Annexin V-FITC/PI apoptotic assay; assay type: cell-based, human
# Source text: (§5) Annexin V-fluorescein isothiocyanate (FITC) and counterstaining with propidium iodide (PI) using the Annexin V-FITC/PI apoptosis detection kit (BD Biosciences, San Diego, CA) were employed to distinguish early and late apoptotic cells according to the manufacturer's directions. Annexin V conjugated with fluorescein isothiocyanate was used to quantify the loss of phosphatidylserine asymmetry in cell membranes involved in apoptosis, and propidium iodide can distinguish between early apoptosis, late apoptotic, and necrotic cells. Analyses were achieved by using a FACSCalibur flow cytometer (BD Biosciences, San Jose, CA).
# (§6) Cells were gently washed twice with PBS accompanied by tryptic digestion (0.25% trypsin/EDTA) and washed yet again with PBS. All the cells including the floating and adherent ones were harvested, pooled and stained with […] in 1× binding buffer for 15 min at room temperature in the dark. Analyses were achieved by FACS Calibur flow cytometer (BD Biosciences, San Jose, CA).
# HepG2 cells = experiment: Annexin V-FITC/PI apoptotic assay; assay type: cell-based, human
# Source text: as §5, §6
# [4] = tested on: A549 human lung adenocarcinoma cells; set-up: method as in PMID 29660690; details: cited from earlier work
# Bcl-2 26me = tested on: Bcl-2 26me; set-up: method as in PMID 19027294; details: cited from earlier work
# Bcl-2 16me = tested on: Bcl-2 16me; set-up: method as in PMID 19027294; details: cited from earlier work
Molecule,expression levels of Bcl-2 [1],cell population in pre-G1 phases compared with control cells (HepG2 cell line),survival percentage (mean ± SEM) ([2]; 4.8828125 μg/ml) [%],survival percentage (mean ± SEM) ([2]; 9.765625 μg/ml) [%],survival percentage (mean ± SEM) ([2]; 19.53125 μg/ml) [%],survival percentage (mean ± SEM) ([2]; 39.0625 μg/ml) [%],survival percentage (mean ± SEM) ([2]; 78.125 μg/ml) [%],survival percentage (mean ± SEM) ([2]; 156.25 μg/ml) [%],survival percentage (mean ± SEM) ([2]; 312.5 μg/ml) [%],survival percentage (mean ± SEM) ([2]; 625 μg/ml) [%],survival percentage (mean ± SEM) ([2]; 1250 μg/ml) [%],survival percentage (mean ± SEM) ([2]; 2500 μg/ml) [%],survival percentage (mean ± SEM) ([2]; 5000 μg/ml) [%],survival percentage (mean ± SEM) ([2]; 10000 μg/ml) [%],survival percentage (mean ± SEM) ([3]; 4.8828125 μg/ml) [%],survival percentage (mean ± SEM) ([3]; 9.765625 μg/ml) [%],survival percentage (mean ± SEM) ([3]; 19.53125 μg/ml) [%],survival percentage (mean ± SEM) ([3]; 39.0625 μg/ml) [%],survival percentage (mean ± SEM) ([3]; 78.125 μg/ml) [%],survival percentage (mean ± SEM) ([3]; 156.25 μg/ml) [%],also measured
"Ethyl (Z)-2-(Ethoxymethyl)-4-oxo-3-(2-oxo-2-((4-(3-(2,3,4-trimethoxyphenyl)acryloyl)-phenyl)amino)ethyl)-3,5,6,8-tetrahydropyrido[4′,3′:4,5]thieno[2,3-d]pyrimidine-7(4H)-carboxylate [Compound 3d]",noticeably decreased,significant increase,133.8 ± 0.227,146.0 ± 0.065,133.2 ± 0.116,132.7 ± 0.231,113.1 ± 0.171,103.1 ± 0.202,35.3 ± 0.044,26.5 ± 0.120,8.5 ± 0.006,6.2 ± 0.005,6.12 ± 0.003,5.8 ± 0.001,123.0 ± 0.026,111.0 ± 0.041,99.2 ± 0.026,91.2 ± 0.138,31.0 ± 0.017,20.5 ± 0.002,S phase cell population (HepG2 cell line): significant (P < 0.05) increase; survival percentage (mean ± SEM) ([3]; 312.5 μg/ml): 20.5 ± 0.002%; survival percentage (mean ± SEM) ([3]; 625 μg/ml): 20.0 ± 0.001%; survival percentage (mean ± SEM) ([3]; 1250 μg/ml): 19.5 ± 0.001%; survival percentage (mean ± SEM) ([3]; 2500 μg/ml): 19.4 ± 0.004%; survival percentage (mean ± SEM) ([3]; 5000 μg/ml): 18.5 ± 0.003%; survival percentage (mean ± SEM) ([3]; 10000 μg/ml): 18.4 ± 0.002%
"CCOC(=O)Cn1c(SCC(=O)Nc2ccc(C(=O)/C=C\c3ccccc3Cl)cc2)nc2sc3c(c2c1=O)CCN(C(=O)OCC)C3 [Compound 3a, Ethyl (Z)-2-((2-((4-(3-(2-Chlorophenyl)acryloyl)phenyl)amino)-2-oxoethyl)thio)-3-(2-ethoxy-2-oxoethyl)-4-oxo-3,5,6,8-tetrahydropyrido[4′,3′:4,5]thieno[2,3-d]pyrimidine-7(4H)-carboxylate]",noticeably decreased,significant increase,150.0 ± 0.171,132.9 ± 0.132,124.4 ± 0.079,129.1 ± 0.038,108.4 ± 0.084,101.8 ± 0.284,101.6 ± 0.022,64.9 ± 0.008,9.8 ± 0.003,6.28 ± 0.003,6.0 ± 0.001,6.0 ± 0.063,103.5 ± 0.033,87.8 ± 0.087,74.2 ± 0.012,73.8 ± 0.019,66.9 ± 0.018,40.1 ± 0.021,"melting point: 181 to 182 °C; cell population in G2/M compared with control cells (HepG2 cell line): substantial increase; survival percentage (mean ± SEM) ([3]; 312.5 μg/ml): 28.4 ± 0.009%; survival percentage (mean ± SEM) ([3]; 625 μg/ml): 21.7 ± 0.012%; survival percentage (mean ± SEM) ([3]; 1250 μg/ml): 20.5 ± 0.004%; survival percentage (mean ± SEM) ([3]; 2500 μg/ml): 19.5 ± 0.001%; survival percentage (mean ± SEM) ([3]; 5000 μg/ml): 19.1 ± 0.001%; survival percentage (mean ± SEM) ([3]; 10000 μg/ml): 18.5 ± 0.001%; total, early, and late apoptosis as well as necrosis relative to the control cells (MCF-7 cell line): significant increase; early and late apoptosis (HepG2 cells): significantly exhibited early and late apoptosis"
C=CCn1c(SCC(=O)Nc2ccc(C(=O)/C=C/c3cc(OC)c(OC)c(OC)c3)cc2)nnc1-c1ccc(OC)cc1 [compound I],,,,,,,,,,,,,,,,,,,,,IC50 [4]: 4400 nM
N.N.[Cl][Pt][Cl] [cisplatin],,,,,,,,,,,,,,,,,,,,,IC50 [4]: 15300 nM
Cc1c(Cl)c(C(=O)N(c2ccccc2)c2ccccc2)nn1-c1ccccc1C(=O)N1Cc2ccccc2CC1CN (stereo not shown) [DRO],,,,,,,,,,,,,,,,,,,,,IC50 (Bcl-2 26me): 100 nM; IC50 (Bcl-2 16me): 30 nM
